Source: ChEMBL document CHEMBL1151559, “Pyridine and piperidine derivatives as inhibitors of dihydrodipicolinic acid synthase, a key enzyme in the diaminopimelate pathway to l-lysine” (Bioorg Med Chem Lett, 1994)
Where “and” joins values, the source holds several entries; their conditions need not be identical. Identical values can stand only once.

Tests used:
[1] = target: T1, Dihydrodipicolinate synthase (Streptomyces coelicolor (strain ATCC BAA-471 / A3(2) / M145), UniProt Q93RY0); experiment: In vitro inhibition of dihydrodipicolinic acid synthase.; type: functional, Escherichia coli
T1 sequence (Q93RY0 whole entry): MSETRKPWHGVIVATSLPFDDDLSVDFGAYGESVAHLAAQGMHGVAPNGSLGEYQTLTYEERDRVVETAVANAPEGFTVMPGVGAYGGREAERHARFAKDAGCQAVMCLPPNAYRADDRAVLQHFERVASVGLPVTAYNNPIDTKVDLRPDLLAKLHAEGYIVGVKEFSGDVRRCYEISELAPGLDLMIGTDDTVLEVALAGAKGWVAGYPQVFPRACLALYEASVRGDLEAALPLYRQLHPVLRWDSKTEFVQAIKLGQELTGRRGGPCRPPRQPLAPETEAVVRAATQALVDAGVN

[2] = target: T1, Dihydrodipicolinate synthase (Streptomyces coelicolor (strain ATCC BAA-471 / A3(2) / M145), UniProt Q93RY0); experiment: Inhibitory activity against dihydrodipicolinic acid synthase; type: functional, Escherichia coli

| IC50 [1] | Ki [2] [µM] | Compound |
| --- | --- | --- |
| 200 µM |  | O=C(O)c1cccc(C(=O)O)[n+]1[O-] |
| 200 µM |  | COC(=N)c1cccc(C(=N)OC)n1 |
| 700 µM |  | COC(=O)[C@@H]1CCC[C@H](C(=O)OC)N1 |
| 5200 µM |  | COC(=O)[C@@H]1CCC[C@@H](C(=O)OC)N1 |
| 300 µM |  | N#Cc1cccc(C#N)n1 |
|  | 6300 | N#C[C@@H]1CCC[C@@H](C#N)N1 |
| 700 µM |  | COC(=O)c1cccc(C(=O)OC)n1 |
| 800 µM |  | O=C(O)c1cccc[n+]1[O-] |
| 7200 µM |  | N=C[C@@H]1CCC[C@H](C=N)N1 |
| 7400 µM |  | N#C[C@@H]1CCC[C@H](C#N)N1 |
| 700 µM |  | COC(=O)[C@@H]1CCC[C@@H](C(=O)OC)N1C |
| 1000 µM |  | O=C(O)c1ccccn1 [2-PICOLINIC ACID] |
| 400 µM |  | O=C(O)c1cccc(C(=O)O)n1 [DIPICOLINIC ACID] |

| Compound | IC50 [1] | Ki [2] [µM] |
| --- | --- | --- |
| c1cc(-c2nnn[nH]2)nc(-c2nnn[nH]2)c1 | 250 µM |  |
| O=NN1[C@@H](C(=O)O)CCC[C@H]1C(=O)O | 2300 µM |  |
| O=NN1CCCCC1C(=O)O (stereo not drawn) | 3500 µM |  |
| O=NN1CCCC1C(=O)O (stereo not drawn) | 7500 µM |  |
| COC(=O)[C@H]1CCC[C@@H](C(=O)OC)N1N=O | 6200 µM and 700 µM |  |
